Assay results: patent US20240139211A1, “METHODS AND COMPOSITIONS FOR TREATING AMYOTROPHIC LATERAL SCLEROSIS” (Amylyx Pharmaceuticals, Inc., priority 2022, published 2024)
Where two headings read alike, the source gives them in different places.

How the values were obtained:
OAT1 = target: T1, OAT1 (Homo sapiens, UniProt Q4U2R8); test: Inhibitor of OAT1, probe substrate uptake; details: for potency estimated from few doses: read-out: Estimated IC50, OAT1; for Inhibition of OAT1 / Inhibitor of OAT1: two concentrations per test article
T1 sequence (Q4U2R8 1-563): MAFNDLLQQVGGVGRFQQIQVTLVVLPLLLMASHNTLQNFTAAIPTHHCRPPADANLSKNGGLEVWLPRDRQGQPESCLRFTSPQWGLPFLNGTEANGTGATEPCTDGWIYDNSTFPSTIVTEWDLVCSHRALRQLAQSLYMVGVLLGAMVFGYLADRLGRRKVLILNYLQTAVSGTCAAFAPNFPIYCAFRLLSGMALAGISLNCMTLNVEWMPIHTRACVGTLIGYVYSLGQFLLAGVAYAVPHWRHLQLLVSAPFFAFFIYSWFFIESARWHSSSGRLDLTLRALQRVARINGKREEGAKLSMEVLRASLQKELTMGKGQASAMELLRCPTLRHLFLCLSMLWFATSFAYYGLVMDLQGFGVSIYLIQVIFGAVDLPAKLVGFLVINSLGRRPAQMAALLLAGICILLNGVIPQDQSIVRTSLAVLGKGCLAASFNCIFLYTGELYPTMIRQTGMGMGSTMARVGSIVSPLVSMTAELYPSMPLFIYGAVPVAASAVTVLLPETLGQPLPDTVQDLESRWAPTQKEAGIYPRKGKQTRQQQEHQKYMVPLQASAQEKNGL

BSEP [1] = target: T2, BSEP (Homo sapiens, UniProt O95342); test: Substrate of BSEP; details: test article 1 and 10 μM
MATE1 [2] = target: T3, MATE1 (Homo sapiens, UniProt Q96FL8); test: Inhibitor of MATE1, probe substrate uptake; details: for potency estimated from few doses: read-out: Estimated IC50, MATE1; for Inhibition of MATE1 / Inhibitor of MATE1: two concentrations per test article
T3 sequence (Q96FL8 1-570): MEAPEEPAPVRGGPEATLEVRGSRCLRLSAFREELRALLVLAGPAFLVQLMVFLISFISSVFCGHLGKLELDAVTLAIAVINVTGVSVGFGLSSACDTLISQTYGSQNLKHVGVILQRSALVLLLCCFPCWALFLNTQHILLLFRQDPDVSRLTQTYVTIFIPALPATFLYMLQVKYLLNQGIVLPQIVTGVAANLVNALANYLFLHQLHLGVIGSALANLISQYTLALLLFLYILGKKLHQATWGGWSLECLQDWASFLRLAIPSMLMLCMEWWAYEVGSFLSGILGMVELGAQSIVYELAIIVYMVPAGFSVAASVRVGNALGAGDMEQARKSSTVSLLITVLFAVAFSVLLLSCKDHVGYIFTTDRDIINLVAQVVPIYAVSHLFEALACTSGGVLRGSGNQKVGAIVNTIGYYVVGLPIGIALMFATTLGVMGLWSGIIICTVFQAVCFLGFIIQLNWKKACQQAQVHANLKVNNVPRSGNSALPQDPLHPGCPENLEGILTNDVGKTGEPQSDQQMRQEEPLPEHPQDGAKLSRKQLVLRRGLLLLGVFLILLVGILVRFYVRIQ

BSEP [3] = target: T2, BSEP; test: Inhibitor of BSEP; details: for Inhibition of BSEP / Inhibitor of BSEP: two concentrations per test article
OAT3 = target: T4, OAT3 (Homo sapiens, UniProt Q8TCC7); test: Inhibitor of OAT3, probe substrate uptake; details: for potency estimated from few doses: read-out: Estimated IC50, OAT3; for Inhibition of OAT3 / Inhibitor of OAT3: two concentrations per test article
T4 sequence (Q8TCC7 1-542): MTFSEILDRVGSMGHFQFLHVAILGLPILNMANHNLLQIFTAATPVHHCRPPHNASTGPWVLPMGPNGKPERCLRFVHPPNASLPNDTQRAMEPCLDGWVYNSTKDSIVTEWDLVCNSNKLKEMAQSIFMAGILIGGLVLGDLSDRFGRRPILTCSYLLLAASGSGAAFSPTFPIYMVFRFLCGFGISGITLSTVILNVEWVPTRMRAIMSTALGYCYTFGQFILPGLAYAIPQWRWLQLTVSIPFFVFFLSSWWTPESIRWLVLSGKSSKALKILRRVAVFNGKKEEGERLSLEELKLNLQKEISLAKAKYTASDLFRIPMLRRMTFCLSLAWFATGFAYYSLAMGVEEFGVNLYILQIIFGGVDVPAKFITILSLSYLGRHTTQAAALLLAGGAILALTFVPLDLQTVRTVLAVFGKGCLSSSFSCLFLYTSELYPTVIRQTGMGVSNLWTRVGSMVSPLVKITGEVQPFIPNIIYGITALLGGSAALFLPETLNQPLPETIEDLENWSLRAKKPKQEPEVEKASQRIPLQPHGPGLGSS

P-gp = P-gp (Homo sapiens, UniProt P08183); test: Substrate of P-gp (Caco-2 cells, selective inhibitors)
human hepatocytes = test: Stability of test articles in hepatocyte cultures; details: two concentrations
OATP1B1 [4] = target: T5, OATP1B1 (Homo sapiens, UniProt Q9Y6L6); test: Inhibitor of OATP1B1, probe substrate uptake; details: for Inhibition of OATP1B1 / Inhibitor of OATP1B1: two concentrations per test article; for potency estimated from few doses: read-out: Estimated IC50, OATP1B1
CYP3A4 mRNA = test: CYP3A4 gene expression induction in hepatocyte cultures
CYP1A2 mRNA = test: CYP1A2 gene expression induction in hepatocyte cultures
OATP1B1 [5] = target: T5, OATP1B1; test: Substrate of OATP1B1, uptake in HEK293 cells
Excerpt: (§1) Vector-transfected HEK cells were used as a control.

MATE1 [6] = target: T3, MATE1; test: Substrate of MATE1, uptake in HEK293 cells
Excerpt: as §1

[7] = estimated from two concentrations
[8] = test article 1 and 10 μM, Caco-2 cells
[9] = gene expression and enzyme activity, three donors

T2 sequence (O95342 whole entry): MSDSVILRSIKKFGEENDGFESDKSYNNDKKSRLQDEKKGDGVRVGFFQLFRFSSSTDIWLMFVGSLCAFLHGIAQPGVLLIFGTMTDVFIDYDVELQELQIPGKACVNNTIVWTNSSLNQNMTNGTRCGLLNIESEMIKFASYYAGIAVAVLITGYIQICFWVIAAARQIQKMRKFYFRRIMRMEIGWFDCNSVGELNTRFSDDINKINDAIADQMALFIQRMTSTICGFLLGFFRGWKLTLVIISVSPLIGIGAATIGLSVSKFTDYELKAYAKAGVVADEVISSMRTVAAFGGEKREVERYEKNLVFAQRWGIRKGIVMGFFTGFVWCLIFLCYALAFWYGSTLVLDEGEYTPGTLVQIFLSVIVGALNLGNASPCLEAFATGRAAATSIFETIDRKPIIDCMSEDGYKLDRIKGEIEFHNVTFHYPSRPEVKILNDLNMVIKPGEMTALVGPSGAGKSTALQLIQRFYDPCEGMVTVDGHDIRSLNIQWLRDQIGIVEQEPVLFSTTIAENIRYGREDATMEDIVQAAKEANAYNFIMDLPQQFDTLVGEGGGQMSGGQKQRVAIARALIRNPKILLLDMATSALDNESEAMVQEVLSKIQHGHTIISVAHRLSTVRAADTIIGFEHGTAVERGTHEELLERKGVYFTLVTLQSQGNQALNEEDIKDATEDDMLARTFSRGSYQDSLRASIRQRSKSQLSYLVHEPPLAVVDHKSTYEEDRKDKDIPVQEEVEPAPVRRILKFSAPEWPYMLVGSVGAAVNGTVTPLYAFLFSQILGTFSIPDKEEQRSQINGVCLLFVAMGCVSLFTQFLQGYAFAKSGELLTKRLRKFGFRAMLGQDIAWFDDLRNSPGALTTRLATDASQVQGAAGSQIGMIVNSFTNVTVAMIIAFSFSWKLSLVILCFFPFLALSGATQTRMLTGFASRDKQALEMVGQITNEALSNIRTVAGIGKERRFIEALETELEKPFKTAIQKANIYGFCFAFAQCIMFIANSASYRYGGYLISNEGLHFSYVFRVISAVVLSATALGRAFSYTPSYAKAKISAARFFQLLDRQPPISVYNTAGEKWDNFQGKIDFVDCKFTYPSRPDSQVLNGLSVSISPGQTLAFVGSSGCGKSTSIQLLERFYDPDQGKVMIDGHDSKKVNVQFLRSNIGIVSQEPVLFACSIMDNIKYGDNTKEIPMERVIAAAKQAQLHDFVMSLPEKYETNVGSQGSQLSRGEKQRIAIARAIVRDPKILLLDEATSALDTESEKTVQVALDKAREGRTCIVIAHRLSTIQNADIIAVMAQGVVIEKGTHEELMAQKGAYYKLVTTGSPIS
T5 sequence (Q9Y6L6 whole entry): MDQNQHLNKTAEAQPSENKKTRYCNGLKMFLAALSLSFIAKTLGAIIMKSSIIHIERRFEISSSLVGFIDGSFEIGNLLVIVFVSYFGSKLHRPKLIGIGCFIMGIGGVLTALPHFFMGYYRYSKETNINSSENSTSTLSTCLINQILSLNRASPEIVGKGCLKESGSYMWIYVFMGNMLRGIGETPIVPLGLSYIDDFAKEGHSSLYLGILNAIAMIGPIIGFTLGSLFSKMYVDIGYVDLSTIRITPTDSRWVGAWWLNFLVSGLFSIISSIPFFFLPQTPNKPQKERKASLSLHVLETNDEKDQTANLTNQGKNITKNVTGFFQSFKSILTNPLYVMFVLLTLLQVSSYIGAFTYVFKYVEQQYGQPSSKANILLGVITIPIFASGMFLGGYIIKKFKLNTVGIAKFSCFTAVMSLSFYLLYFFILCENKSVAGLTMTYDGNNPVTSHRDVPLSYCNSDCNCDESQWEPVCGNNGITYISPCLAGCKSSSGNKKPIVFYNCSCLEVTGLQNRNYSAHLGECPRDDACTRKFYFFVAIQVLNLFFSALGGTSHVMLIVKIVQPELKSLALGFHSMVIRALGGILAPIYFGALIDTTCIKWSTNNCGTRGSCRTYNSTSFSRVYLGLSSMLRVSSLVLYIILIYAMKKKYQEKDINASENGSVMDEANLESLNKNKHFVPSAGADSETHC
Sequence of P-gp (P08183 whole entry): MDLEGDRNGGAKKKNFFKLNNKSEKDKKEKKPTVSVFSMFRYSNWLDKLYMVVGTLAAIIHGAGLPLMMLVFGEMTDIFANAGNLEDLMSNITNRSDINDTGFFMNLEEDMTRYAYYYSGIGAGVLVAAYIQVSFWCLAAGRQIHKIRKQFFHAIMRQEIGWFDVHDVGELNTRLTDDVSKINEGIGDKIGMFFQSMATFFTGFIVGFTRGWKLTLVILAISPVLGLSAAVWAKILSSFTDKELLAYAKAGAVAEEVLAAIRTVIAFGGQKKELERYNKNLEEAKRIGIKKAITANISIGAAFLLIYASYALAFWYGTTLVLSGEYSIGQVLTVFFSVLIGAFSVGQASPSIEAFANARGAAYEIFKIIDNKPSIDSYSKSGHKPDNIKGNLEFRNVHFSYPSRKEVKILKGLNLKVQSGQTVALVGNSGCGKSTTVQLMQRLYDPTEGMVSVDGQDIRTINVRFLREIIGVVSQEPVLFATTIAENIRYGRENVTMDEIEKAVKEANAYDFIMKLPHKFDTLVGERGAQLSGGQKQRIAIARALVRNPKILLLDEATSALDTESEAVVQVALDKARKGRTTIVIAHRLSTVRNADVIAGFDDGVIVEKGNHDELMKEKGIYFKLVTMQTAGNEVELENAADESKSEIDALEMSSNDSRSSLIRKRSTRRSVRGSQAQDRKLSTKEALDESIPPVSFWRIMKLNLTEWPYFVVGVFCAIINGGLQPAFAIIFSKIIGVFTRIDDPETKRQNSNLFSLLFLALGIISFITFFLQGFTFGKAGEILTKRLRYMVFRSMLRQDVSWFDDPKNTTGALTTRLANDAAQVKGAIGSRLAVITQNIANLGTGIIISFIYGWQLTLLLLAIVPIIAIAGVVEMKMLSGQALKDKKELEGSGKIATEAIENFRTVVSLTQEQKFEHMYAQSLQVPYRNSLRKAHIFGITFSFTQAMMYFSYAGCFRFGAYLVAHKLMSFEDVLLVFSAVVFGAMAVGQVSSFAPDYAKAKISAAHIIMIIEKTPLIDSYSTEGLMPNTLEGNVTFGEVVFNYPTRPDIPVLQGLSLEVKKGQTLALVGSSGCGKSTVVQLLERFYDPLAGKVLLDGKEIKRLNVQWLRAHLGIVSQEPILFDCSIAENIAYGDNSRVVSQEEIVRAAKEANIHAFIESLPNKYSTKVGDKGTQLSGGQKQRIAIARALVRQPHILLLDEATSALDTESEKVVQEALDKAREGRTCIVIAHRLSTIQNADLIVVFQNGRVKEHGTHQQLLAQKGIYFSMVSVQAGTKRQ

Molecule | potency estimated from few doses (OAT1; [7]) | Inhibition of OAT1 (OAT1) | Inhibitor of OAT1 (OAT1) | Substrate of BSEP (BSEP [1]) | potency estimated from few doses (MATE1 [2]; [7]) | Inhibition of MATE1 (MATE1 [2]) | Inhibitor of MATE1 (MATE1 [2]) | Inhibition of BSEP (BSEP [3]) | Inhibitor of BSEP (BSEP [3]) | potency estimated from few doses (OAT3; [7]) | Inhibition of OAT3 (OAT3) | Inhibitor of OAT3 (OAT3) | Substrate of P-gp (P-gp; Caco-2, 1 and 10 μM) | Substrate of P-gp (P-gp; [8]) | % of time zero remaining in hepatocyte cultures (human hepatocytes; 1 hour) | % of time zero remaining in hepatocyte cultures (human hepatocytes; 4 hours) | % of time zero remaining in hepatocyte cultures (human hepatocytes; 24 hours) | Inhibition of OATP1B1 (OATP1B1 [4]) | Inhibitor of OATP1B1 (OATP1B1 [4]) | further results
O=C(O)CCCc1ccccc1 [PB, sodium phenylbutyrate] | < 25 µM | inhibited | Yes | No | < 250 µM | inhibited | Yes | did not inhibit | No | < 25 µM | inhibited | Yes | not a substrate | No | ≤ 84.0% | ≤ 60.7% | 0% | did not inhibit | No | Uptake activity remaining, OAT1 (OAT1; 25 μM): 21.1%; Uptake activity remaining, MATE1 (MATE1 [2]; 250 μM): 43.7%; Uptake activity remaining, OAT3 (OAT3; 25 μM): 44.3%
C[C@H](CCC(=O)NCC(=O)O)[C@H]1CC[C@H]2[C@@H]3[C@@H](O)C[C@@H]4C[C@H](O)CC[C@]4(C)[C@H]3CC[C@]12C [Glycoursodeoxycholic acid, glycoursodeoxycholic acid] | – | did not inhibit | No | Yes | > 100 µM | inhibited | Yes | inhibited | Yes | < 100 µM | inhibited | Yes | as a substrate | Yes | ≤ 88.8% | ≤ 75.4% | ≤ 34.7% | inhibited | Yes | Maximum fold induction of CYP3A4 gene expression (CYP3A4 mRNA; Donor 2): 3.40 fold; Maximum fold induction of CYP3A4 gene expression (CYP3A4 mRNA; Donor 3): 3.30 fold; Inducer of CYP3A4 (conclusion) (CYP3A4 mRNA; [9]): did not meet the classification requirements to be identified as an inducer of CYP3A4; potency estimated from few doses (BSEP [3]; human): < 10 µM; Emax, CYP1A2 gene expression (CYP1A2 mRNA; Donor 1): 11.7 fold; Maximum fold induction of CYP1A2 gene expression (CYP1A2 mRNA; Donor 2): 13.0 fold; Maximum fold induction of CYP1A2 gene expression (CYP1A2 mRNA; Donor 3): 7.83 fold; Inducer of CYP1A2 (conclusion) (CYP1A2 mRNA; [9]): as an inducer; Uptake activity remaining, OAT3 (OAT3; 100 μM): 24.5%; Efflux remaining with zosuquidar (P-gp; Caco-2): < 55.3%; Efflux remaining with verapamil (P-gp; Caco-2, at 10 μM): 74.7%; Fold uptake by OATP1B1 over vector control (OATP1B1 [5]; human, 5 min, 10 μM): 7.56 fold; Fold uptake by OATP1B1 over vector control with known inhibitors (OATP1B1 [5]; human, 5 min, 10 μM): 1.80 fold; Uptake activity remaining, OATP1B1 (OATP1B1 [4]; 10 μM): 50.4%; Uptake activity remaining, OATP1B1 (OATP1B1 [4]; 100 μM): 1.68%
ursodeoxycholic acid | < 500 µM | inhibited | Yes | – | < 500 µM | inhibited | Yes | – | – | < 50 µM | inhibited | Yes | not a substrate | No | ≤ 93.1% | ≤ 61.0% | ≤ 2.35% | inhibited | Yes | potency estimated from few doses (OAT1; estimated from two doses): < 500 µM; Substrate of MATE1 (MATE1 [6]; 1 and 10 μM): not a substrate; Substrate of MATE1 (MATE1 [6]; test article 1 and 10 μM): No; potency estimated from few doses (MATE1 [2]; estimated from two doses): < 500 µM; Uptake activity remaining, OAT3 (OAT3; 50 μM): 27.6%; potency estimated from few doses (OAT3; estimated from two doses): < 50 µM; Substrate of OATP1B1 (OATP1B1 [5]; 1 and 10 μM): not a substrate; Substrate of OATP1B1 (OATP1B1 [5]; test article 1 and 10 μM): No; Uptake activity remaining, OATP1B1 (OATP1B1 [4]; 50 μM): 545.1%; Uptake activity remaining, OATP1B1 (OATP1B1 [4]; 500 μM): no uptake activity remaining; potency estimated from few doses (OATP1B1 [4]; [7]): < 50 µM; potency estimated from few doses (OATP1B1 [4]; estimated from two doses): < 50 µM
